Measured values reported in US10858360B2, “Tricyclic gyrase inhibitors” (priority 2011, dated 2020).
≈ marks a conversion by molar mass, not a printed value.

Tests used:
[1] = test system: S. aureus ATCC 13709; test: MIC, S. aureus ATCC 13709 (Alamar Blue broth microdilution); format: cell-based; settings: Alamar Blue read after overnight incubation at 35° C.; for MIC: Staphylococcus aureus, ATCC13709, S. aureus; for MIC Sa: S. aureus
[2] = test system: E. coli ATCC 25922; test: MIC, E. coli ATCC 25922; format: cell-based; settings: Alamar Blue read after overnight incubation at 35° C.; for MIC: Escherichia coli, ATCC25922, E. coli; for MIC Ec: E. coli

Structure (SMILES)	MIC [1] [µg/mL]	MIC [2] [µg/mL]	MIC Sa [1] [µg/mL]	MIC Ec [2] [µg/mL]
CNc1cccc2c1[nH]c1nc(Sc3cnc4cccnc4c3)nc(N3C[C@@H](N)C[C@H]3C)c12 [1.60]	0.5 (≈ 1.1 µM)	2 (≈ 4.38 µM)	–	–
CNc1cccc2c1[nH]c1nc(Sc3cnc4cccnc4c3)nc(N3C[C@H](N)C[C@H]3C)c12 [1.61]	8 (≈ 17.5 µM)	64 (≈ 140 µM)	–	–
CNc1cc(F)cc2c1[nH]c1nc(Sc3cnc4cccnc4c3)nc(N3CC(N)C4(CC4)C3)c12 (centres unmarked) [1.62]	≤ 0.5	≤ 0.5	–	–
CNc1cc(F)cc2c1[nH]c1nc(Sc3cnc4ccc[n+]([O-])c4c3)nc(N3CC(N)C4(CC4)C3)c12 (centres unmarked) [1.63]	≤ 0.5	≤ 0.5	–	–
CNc1cc(F)cc2c1[nH]c1nc(Sc3cnc4ccc[n+]([O-])c4c3)nc(N3CCC4(CC4N)C3)c12 (centres unmarked) [1.64]	≤ 0.5	≤ 0.5	–	–
CNc1cc(F)cc2c1[nH]c1nc(Sc3cnc4ccc[n+]([O-])c4c3)nc(N3CCC4(CC4N)C3)c12 (centres unmarked) [1.65]	–	–	≤0.5	≤0.5
CNc1cccc2c1[nH]c1nc(Sc3cnc4ccc[n+]([O-])c4c3)nc(N3CC4C(N)C4C3)c12 (centres unmarked) [1.66]	–	–	≤0.13	≤0.5
CNc1cccc2c1[nH]c1nc(Sc3cnc4cccnc4c3)nc(N3CCN(C(C)=O)CC3)c12 [1.67]	≤ 0.5	> 64	–	–
CNc1cccc2c1[nH]c1nc(Sc3cnc4cccnc4c3)nc(N3C[C@H](N)C[C@@H]3CO)c12 [1.68]	16 (≈ 33.9 µM)	32 (≈ 67.7 µM)	–	–
CNc1cccc2c1[nH]c1nc(Sc3cnc4cccnc4c3)nc(N3CCN(C(=O)C4CCCO4)CC3)c12 (centres unmarked) [1.69]	≤ 0.5	8 (≈ 14.8 µM)	–	–
CNc1cccc2c1[nH]c1nc(Sc3cnc4cccnc4c3)nc(N3CCC(C(O)c4cccs4)CC3)c12 (centres unmarked) [1.70]	1 (≈ 1.81 µM)	> 32	–	–
CNc1ccc(C)c2c1[nH]c1nc(Sc3cnc4ccc[n+]([O-])c4c3)nc(N3CC(N)C4(CC4)C3)c12 (centres unmarked) [1.72]	≤ 0.5	1 (≈ 2.01 µM)	–	–
CNc1ccc(C)c2c1[nH]c1nc(Sc3cnc4ccc[n+]([O-])c4c3)nc(N3CC4C(N)C4C3)c12 (centres unmarked) [1.73]	≤ 0.5	8 (≈ 16.5 µM)	–	–
CNc1cccc2c1[nH]c1nc(Sc3ccc4ccc(C(=O)O)nc4c3)nc(N3CC4C(N)C4C3)c12 (centres unmarked) [1.74]	4 (≈ 8.04 µM)	> 64	–	–
COc1cccc2c1[nH]c1nc(Sc3cnc4cccnc4c3)nc(N3CC4C(N)C4C3)c12 (centres unmarked) [1.75]	≤ 0.5	> 64	–	–
COc1cccc2c1[nH]c1nc(Sc3cnc4nccnc4c3)nc(N3CC4C(N)C4C3)c12 (centres unmarked) [1.76]	1 (≈ 2.19 µM)	> 64	–	–
COc1cccc2c1[nH]c1nc(Sc3cnc4ccc[n+]([O-])c4c3)nc(N3CC(N)C3)c12 [1.77]	2 (≈ 4.49 µM)	> 64	–	–
COc1cccc2c1[nH]c1nc(Sc3cnc4ccc[n+]([O-])c4c3)nc(N3CC[C@@H](N)C3)c12 [1.78]	≤ 0.5	64 (≈ 139 µM)	–	–
CNNc1cc(F)cc2c1[nH]c1nc(Oc3cnc(C)nc3)nc(N3CC4C(N)C4C3)c12 (centres unmarked) [2.1]	–	–	≤0.5	>16
CCc1cc(F)cc2c1[nH]c1nc(Oc3cncnc3)nc(N3CC4C(N)C4C3)c12 (centres unmarked) [2.2]	2 (≈ 4.93 µM)	4 (≈ 9.87 µM)	–	–
CCc1cc(F)cc2c1[nH]c1nc(Oc3cnc(C)nc3)nc(N3CC(N)C4(CC4)C3)c12 (centres unmarked) [2.3]	1 (≈ 2.31 µM)	16 (≈ 36.9 µM)	–	–
CCc1cc(F)cc2c1[nH]c1nc(Oc3cnc(C)nc3)nc(N3CC4CC(N)C4C3)c12 (centres unmarked) [2.4]	≤ 0.5	1 (≈ 2.31 µM)	–	–
CCc1cc(F)cc2c1[nH]c1nc(Oc3cncnc3)nc(N3CC4CC(N)C4C3)c12 (centres unmarked) [2.5]	–	–	≤0.5	2 (≈ 4.77 µM)

Structure (SMILES)	MIC [1] [µg/mL]	MIC [2] [µg/mL]	MIC Sa [1] [µg/mL]	MIC Ec [2] [µg/mL]
Cc1cc(F)cc2c1[nH]c1nc(Oc3cncnc3)nc(N3CC4C(N)C4C3)c12 (centres unmarked) [2.7]	4 (≈ 10.2 µM)	> 16	–	–
Nc1cccc2c1[nH]c1nc(Oc3cnc4cccnc4c3)nc(N3CC4C(N)C4C3)c12 (centres unmarked) [2.8]	–	–	16 (≈ 37.7 µM)	>64
Cc1ncc(Oc2nc(N3CC(N)C4(CC4)C3)c3c(n2)[nH]c2c(N)cc(F)cc23)cn1 (centres unmarked) [2.9]	–	–	16 (≈ 38.1 µM)	16 (≈ 38.1 µM)
COc1cccc2c1[nH]c1nc(Oc3cncnc3)nc(N3CCC(N)C3)c12 (centres unmarked) [2.10]	–	–	2 (≈ 5.3 µM)	32 (≈ 84.8 µM)
COc1cccc2c1[nH]c1nc(Oc3cncnc3)nc(N3CCC(NC(C)=O)C3)c12 (centres unmarked) [2.11]	–	–	4 (≈ 9.54 µM)	>64
COc1cccc2c1[nH]c1nc(Oc3cccc(C#N)c3)nc(N3CC4C(N)C4C3)c12 (centres unmarked) [2.12]	–	–	16 (≈ 38.8 µM)	>64
COc1cccc2c1[nH]c1nc(Oc3cncnc3)nc(N3CC4C(N)C4C3)c12 (centres unmarked) [2.13]	–	–	2 (≈ 5.14 µM)	64 (≈ 164 µM)
COc1cccc2c1[nH]c1nc(Oc3cnc4cccnc4c3)nc(N3CC4C(N)C4C3)c12 (centres unmarked) [2.14]	–	–	1 (≈ 2.28 µM)	>64
COc1cccc2c1[nH]c1nc(Oc3cncc(C#N)c3)nc(N3CC4C(N)C4C3)c12 (centres unmarked) [2.15]	–	–	1 (≈ 2.42 µM)	>32
Cc1ncc(Oc2nc(N3CC4CC3C[C@@H]4N)c3c(n2)[nH]c2c(N)cc(F)cc23)cn1 (some centres unmarked) [2.160]	8 (≈ 19 µM)	16 (≈ 38.1 µM)	–	–
CNc1cccc2c1[nH]c1nc(Oc3cncnc3)nc(N3CC4CC4(N)C3)c12 (centres unmarked) [3.1]	1 (≈ 2.57 µM)	4 (≈ 10.3 µM)	–	–
CNc1cccc2c1[nH]c1nc(Oc3cnc(OC)c(OC)c3)nc(N3CC[C@@H](N)C3)c12 [3.2]	4 (≈ 9.19 µM)	16 (≈ 36.7 µM)	–	–
CNc1cccc2c1[nH]c1nc(Oc3cncc(C#N)c3)nc(N3CC[C@@H](N)C3)c12 [3.3]	0.5 (≈ 1.25 µM)	1 (≈ 2.5 µM)	–	–
CNc1cccc2c1[nH]c1nc(Oc3cncnc3)nc(N3CC[C@@H](N)C3)c12 [3.4]	0.5 (≈ 1.33 µM)	≤ 0.5	–	–
CNc1cccc2c1[nH]c1nc(Oc3cnc(C)nc3)nc(N3CC[C@@H](N)C3)c12 [3.5]	0.25 (≈ 0.64 µM)	≤ 0.5	–	–
CNc1cccc2c1[nH]c1nc(Oc3cncc(F)c3)nc(N3CC[C@@H](N)C3)c12 [3.6]	0.5 (≈ 1.27 µM)	1 (≈ 2.54 µM)	–	–
CNc1cccc2c1[nH]c1nc(Oc3cncc(F)c3)nc(N3CC4CNC4C3)c12 (centres unmarked) [3.7]	1 (≈ 2.47 µM)	4 (≈ 9.87 µM)	–	–
CNc1cccc2c1[nH]c1nc(Oc3cncnc3)nc(N3CC(N)C(O)C3)c12 (centres unmarked) [3.8]	16 (≈ 40.8 µM)	> 64	–	–
CNc1cccc2c1[nH]c1nc(Oc3cncnc3)nc(-c3cn[nH]c3)c12 [3.9]	2 (≈ 5.58 µM)	32 (≈ 89.3 µM)	–	–
CNc1cccc2c1[nH]c1nc(Oc3cnc(C)nc3)nc(N3CC[C@@H](NCCC#N)C3)c12 [3.10]	32 (≈ 72.2 µM)	> 64	–	–
CNc1cccc2c1[nH]c1nc(Oc3cnc(C)nc3)nc(N3CC4C(C3)C4NCCC#N)c12 (centres unmarked) [3.11]	≤ 0.5	2 (≈ 4.39 µM)	–	–
CNc1cccc2c1[nH]c1nc(Oc3cncnc3)nc(N3C[C@H](NCC4CC4)C4(CC4)C3)c12 [3.12]	1 (≈ 2.19 µM)	8 (≈ 17.5 µM)	–	–
CNc1cccc2c1[nH]c1nc(Oc3cncnc3)nc(N3CC4C(C3)C4NCC3CC3)c12 (centres unmarked) [3.13]	≤ 0.5	1 (≈ 2.26 µM)	–	–

Structure (SMILES)	MIC [1] [µg/mL]	MIC [2] [µg/mL]	MIC Sa [1] [µg/mL]	MIC Ec [2] [µg/mL]
CNc1cccc2c1[nH]c1nc(Oc3cnc(C)nc3)nc(N3CC4C(C3)C4NCC3CC3)c12 (centres unmarked) [3.14]	≤ 0.5	2 (≈ 4.38 µM)	–	–
CNc1cccc2c1[nH]c1nc(Oc3cncnc3)nc(N3CC4CCC(N)C4C3)c12 (centres unmarked) [3.15]	1 (≈ 2.4 µM)	8 (≈ 19.2 µM)	–	–
CNc1cccc2c1[nH]c1nc(Oc3cncnc3)nc(N3CCC[C@@H](N)C3)c12 [3.16]	4 (≈ 10.2 µM)	4 (≈ 10.2 µM)	–	–
CNc1cccc2c1[nH]c1nc(Oc3cncnc3)nc(N3CCC(C(N)=O)C3)c12 (centres unmarked) [3.17]	2 (≈ 4.95 µM)	> 16	–	–
CNc1cccc2c1[nH]c1nc(Oc3cnc(C)nc3)nc(N3CC4C(C3)C4NC(=O)CN)c12 (centres unmarked) [3.18]	4 (≈ 8.7 µM)	> 16	–	–
CNc1cccc2c1[nH]c1nc(Oc3cncc(C(N)=O)c3)nc(N3CC4C(N)C4C3)c12 (centres unmarked) [3.19]	8 (≈ 18.6 µM)	32 (≈ 74.3 µM)	–	–
CNc1cccc2c1[nH]c1nc(Oc3cncc(C(=O)O)c3)nc(N3CC4C(N)C4C3)c12 (centres unmarked) [3.20]	> 8	> 8	–	–
CNc1cccc2c1[nH]c1nc(Oc3ccc(C(=O)OC)nc3)nc(N3CC4C(N)C4C3)c12 (centres unmarked) [3.21]	≤ 0.5	1 (≈ 2.24 µM)	–	–
CNc1cccc2c1[nH]c1nc(Oc3ccc(C(=O)O)nc3)nc(N3CC4C(N)C4C3)c12 (centres unmarked) [3.22]	16 (≈ 37.1 µM)	64 (≈ 148 µM)	–	–
CNc1cccc2c1[nH]c1nc(Oc3cnc4ccoc4c3)nc(N3CC4C(N)C4C3)c12 (centres unmarked) [3.23]	≤ 0.5	2 (≈ 4.68 µM)	–	–
CNc1cccc2c1[nH]c1nc(Oc3cncc(-c4nnn(C)n4)c3)nc(N3CC4C(N)C4C3)c12 (centres unmarked) [3.24]	2 (≈ 4.26 µM)	8 (≈ 17 µM)	–	–
CNc1cccc2c1[nH]c1nc(Oc3cnc(N4CCOCC4)nc3)nc(N3CC4C(N)C4C3)c12 (centres unmarked) [3.26]	> 16	> 16	–	–
CNc1cccc2c1[nH]c1nc(Oc3cncc(C#N)c3)nc(N3CC4C(N)C4C3)c12 (centres unmarked) [3.27]	1 (≈ 2.42 µM)	4 (≈ 9.7 µM)	–	–
CNc1cccc2c1[nH]c1nc(Oc3cncnc3)nc(N3CC4C(N)C4C3)c12 (centres unmarked) [3.28]	1 (≈ 2.57 µM)	2 (≈ 5.15 µM)	–	–
CNc1cccc2c1[nH]c1nc(Oc3cnc(C)nc3)nc(N3CC4C(N)C4C3)c12 (centres unmarked) [3.29]	≤ 0.5	≤ 0.5	–	–
CNc1cccc2c1[nH]c1nc(Oc3ccc[n+]([O-])c3)nc(N3CC4C(N)C4C3)c12 (centres unmarked) [3.30]	16 (≈ 39.7 µM)	16 (≈ 39.7 µM)	–	–
CNc1cccc2c1[nH]c1nc(Oc3ccc4nccnc4c3)nc(N3CC4C(N)C4C3)c12 (centres unmarked) [3.31]	2 (≈ 4.56 µM)	8 (≈ 18.2 µM)	–	–
CNc1cccc2c1[nH]c1nc(Oc3cnc(N)nc3)nc(N3CC4C(N)C4C3)c12 (centres unmarked) [3.32]	≤ 0.5	2 (≈ 4.96 µM)	–	–
CNc1cccc2c1[nH]c1nc(Oc3cncc(F)c3)nc(N3CC4C(N)C4C3)c12 (centres unmarked) [3.33]	≤ 0.5	1 (≈ 2.47 µM)	–	–
CNc1cccc2c1[nH]c1nc(Oc3cnc4cccnc4c3)nc(N3CC4C(N)C4C3)c12 (centres unmarked) [3.34]	≤ 0.5	≤ 0.5	–	–
CNc1cccc2c1[nH]c1nc(Oc3cncc(OC)c3)nc(N3CC4C(N)C4C3)c12 (centres unmarked) [3.35]	≤ 0.5	1 (≈ 2.4 µM)	–	–
